{"source": "patent US8063101B2", "about": "“Carotenoid analogs and derivatives for the prevention of platelet aggregation” (Cardax Pharmaceuticals, Inc., priority 2007, dated 2011)", "key": {"platelets [1]": {"test_system": "platelets", "assay": "Platelet-derived peroxynitrite release after IP3 stimulation", "assay_type": "cell-based", "settings": "compound alone at 1.0 μM; IP3 1.0 μM; FIG. 12", "description": "Values are reported as mean±S.D. (N=5). *p<0.001 and †p<0.05 versus control; §p<0.001 versus aspirin treatment (ANOVA Student-Newman-Keuls multiple comparisons test; overall ANOVA: p<0.0001; F=52.475). […] Values are reported as mean±S.D. (N=5). *p<0.001 versus control and †p<0.001 versus aspirin alone (ANOVA Student-Newman-Keuls multiple comparisons test; overall ANOVA: p<0.0001; F=21.905). Abbreviations: Astax=Astaxanthin. […] Values are reported as mean±S.D. (N=5). *p<0.05 and **p<0.001 versus control; †p<0.05 and ‡p<0.001 versus simvastatin alone (ANOVA Student-Newman-Keuls multiple comparisons test; overall ANOVA: p<0.0001; F=13.716). Abbreviations: Astax=Astaxanthin; Simva=Simvastatin."}, "platelets [2]": {"test_system": "platelets", "assay": "Platelet nitric oxide/peroxynitrite release ratio after IP3 stimulation", "assay_type": "cell-based", "settings": "aspirin separately, 1.0 μM; IP3 1.0 μM", "description": "Values are reported as mean±S.D. (N=5). *p<0.05 and **p<0.001 versus control; †p<0.01 and ‡p<0.001 versus aspirin alone (ANOVA Student-Newman-Keuls multiple comparisons test; overall ANOVA: p<0.0001; F=129.98). Abbreviations: Astax=Astaxanthin. […] Values are reported as mean±S.D. (N=5). *p<0.05 and **p<0.001 versus control; †p<0.001 versus simvastatin alone (ANOVA Student-Newman-Keuls multiple comparisons test; overall ANOVA: p<0.0001; F=84.477). Abbreviations: Astax=Astaxanthin; Simva=Simvastatin. […] Values are reported as mean±S.D. (N=5). *p<0.05 and †p<0.001 versus control; §p<0.001 versus astaxanthin treatment (ANOVA Student-Newman-Keuls multiple comparisons test; overall ANOVA: p<0.0001; F=40.020)."}}, "data": [{"compound": "CC(=O)Oc1ccccc1C(=O)O", "note": "[aspirin, reference compound]", "values": [{"measurement": "effect on platelet ONOO— release", "setting": "platelets [1]", "result": "increased"}, {"measurement": "effect on NO/ONOO— ratio", "setting": "platelets [2]", "result": "failed to produce a favorable effect"}]}]}
